Where two headings read alike, the source gives them in different places.
Key:
TYK2 JH2 = target: T1, TYK2 JH2 (Homo sapiens, UniProt P29597); assay: TYK2 JH2 binding assay (KINOMEscan KdELECT competitive binding); conditions: TYK2 JH2 domain
T1 construct: purchased DiscoverX (KINOMEscan KdELECT service); host or cells: E. coli BL21-derived (T7 phage display) or HEK-293
In short: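 Kd values come from qPCR measurement of kinase retained on an immobilized-ligand resin after 1 h room-temperature competition with compound in an 11-point, 3-fold series.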

[1] = tested on: JAK1/TYK2 pSTAT5 (Tyr694/699) in THP-1 cell line; assay: IFNa-stimulated JAK1/TYK2 pSTAT5 (Tyr694/699) inhibition cellular assay, AlphaLISA; assay type: cell-based; conditions: Homo sapiens, THP-1 cells, AlphaLISA (Assay B)
In short: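 THP-1 cells (2e4/well) in HBSS preincubated 1 h at 37° C. with compound (final 10000–0.04 nM, 8 points, 6-fold), then stimulated with IFNa (100 ng/mL stock) for 30 min before lysis. pSTAT5 (Tyr694/699) read by AlphaLISA at 615 nm; IC50 from four-parameter logistic fit with bottom fixed at 0 and Hill slope at −1.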

[2] = DiscoverX KINOMEscan KdELECT (Assay A), read-out: Biochemical TYK2_DiscoverX_JH2_BND_Kd
[3] = IFNa-stimulated, read-out: Cellular_THP1_IFNa-pSTATS_TYK2
[4] = KINOMEscan KdELECT (Assay A), read-out: Biochemical TYK2_DiscoverX_JH2_BND_Kd
[5] = KINOMEscan KdELECT (Assay A), read-out: Biochemical TYK2_JH2_Kd
[6] = IFNa-stimulated, read-out: Cellular THP1_IFNa-pSTATS_IC50
[7] = IFNa-stimulated pSTAT5 (Tyr694/699), read-out: Cellular_THP1_IFNa-pSTATS_TYK2

T1 sequence (P29597 589-875 limits assumed): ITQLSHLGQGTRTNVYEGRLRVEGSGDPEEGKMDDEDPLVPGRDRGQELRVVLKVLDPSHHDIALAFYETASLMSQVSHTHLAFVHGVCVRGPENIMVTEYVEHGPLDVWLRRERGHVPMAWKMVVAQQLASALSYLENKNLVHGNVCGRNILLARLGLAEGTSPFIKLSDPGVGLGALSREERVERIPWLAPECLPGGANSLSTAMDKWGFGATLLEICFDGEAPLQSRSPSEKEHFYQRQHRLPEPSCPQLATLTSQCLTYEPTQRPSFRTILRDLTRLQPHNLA

Row | SMILES | Kd (TYK2 JH2; [2]) [nM] | IC50 [1, 3] [nM] | Kd (TYK2 JH2; [4]) [nM] | further results
1 | CNc1ncc(C#Cc2ccncc2C(F)(F)F)c2cc(NC(=O)C3CC3)ncc12 [Example 646, N-(8-(methylamino)-5-((3-(trifluoromethyl)pyridin-4-yl)ethynyl)-2,7-naphthyridin-3-yl)cyclopropanecarboxamide] |  | ≤ 500 | ≤ 100 | 
2 | CCc1ccccc1-c1cnc(NC)c2cnc(NC(=O)C3CC3)cc12 [Example 11, N-(5-(2-ethylphenyl)-8-(methylamino)-2,7-naphthyridin-3-yl)cyclopropanecarboxamide] |  |  |  | Kd (TYK2 JH2; [5]): 100 to 1000 nM; IC50 [1, 6]: > 500 nM
3 | CNc1ncc(-c2nc3ccc(N4CCO[C@@H](C)C4)cn3n2)c2cc(NC(=O)C3CC3(C)C)ncc12 (stereo partly drawn) [Example 1080, 2,2-dimethyl-N-(8-(methylamino)-5-(6-((S)-2-methylmorpholino)-[1,2,4]triazolo[1,5-a]pyridin-2-yl)-2,7-naphthyridin-3-yl)cyclopropane-1-carboxamide] |  |  | ≤ 100 | IC50 [1, 7]: ≤ 500 nM
4 | CNc1ncc(-c2nc3ccc(F)cc3o2)c2cc(NC(=O)C3CC3)ncc12 [Example 179, N-(5-(6-fluorobenzo[d]oxazol-2-yl)-8-(methylamino)-2,7-naphthyridin-3-yl)cyclopropanecarboxamide] |  |  |  | Kd (TYK2 JH2; [5]): ≤ 100 nM; IC50 [1, 6]: ≤ 500 nM
5 | CNc1ncc(-c2nc3cc(N4CCO[C@@H](COC)C4)ccc3o2)c2cc(NC(=O)C3CC3)ncc12 (single isomer, unassigned) [Example 920] |  | ≤ 500 | ≤ 100 | 
6 | CNc1ncc(-c2cnn(C)c2)c2cc(NC(=O)C3CC3)ncc12 [Example 25, N-(5-(1-methyl-1H-pyrazol-4-yl)-8-(methylamino)-2,7-naphthyridin-3-yl)cyclopropanecarboxamide] |  |  |  | Kd (TYK2 JH2; [5]): ≤ 100 nM; IC50 [1, 6]: > 500 nM
7 | CNc1ncc(-c2cccc(F)c2)c2cc(NC(=O)C3CC3)ncc12 [Example 116, N-(5-(3-fluorophenyl)-8-(methylamino)-2,7-naphthyridin-3-yl)cyclopropanecarboxamide] |  |  |  | Kd (TYK2 JH2; [5]): ≤ 100 nM; IC50 [1, 6]: > 500 nM
8 | CNc1ncc(-c2nc3cc(NC(C)=O)ccc3o2)c2cc(NC(=O)C3CC3)ncc12 [Example 295, N-(5-(5-acetamidobenzo[d]oxazol-2-yl)-8-(methylamino)-2,7-naphthyridin-3-yl)cyclopropanecarboxamide] | ≤ 100 | ≤ 500 |  | 
9 | [2H]C([2H])([2H])Nc1ncc(-c2nc3ccc(OC)cn3n2)c2cc(NC(=O)[C@@H]3C[C@@H]3F)ncc12 [Example 569, (1S,2S)-2-fluoro-N-(5-(6-methoxy-[1,2,4]triazolo[1,5-a]pyridin-2-yl)-8-((methyl-d3)amino)-2,7-naphthyridin-3-yl)cyclopropane-1-carboxamide] | ≤ 100 | ≤ 500 |  | 
10 | C=C(c1ccc(N2CCOCC2)cc1)c1cnc(NC)c2cnc(NC(=O)C3CC3)cc12 [Example 793, N-(8-(methylamino)-5-(1-(4-morpholinophenyl)vinyl)-2,7-naphthyridin-3-yl)cyclopropanecarboxamide] |  | > 500 | ≤ 100 | 
11 | CNc1ncc(-c2nc3c(F)cc(N4CCOCC4)cn3n2)c2cc(NC(=O)C3CC3)ncc12 [Example 1036] |  |  | ≤ 100 | IC50 [1, 7]: ≤ 500 nM
12 | [2H]C([2H])([2H])Nc1ncc(-c2nc3cc(N4CCO[C@@H](C)C4)ccc3o2)c2cc(NC(=O)[C@H]3C[C@H]3C)ncc12 [Example 440, (1S,2R)-2-methyl-N-(8-((methyl-d3)amino)-5-(5-((S)-2-methylmorpholino)benzo[d]oxazol-2-yl)-2,7-naphthyridin-3-yl)cyclopropane-1-carboxamide] | ≤ 100 | ≤ 500 |  | 
13 | [2H]C([2H])([2H])Nc1ncc(-c2nc3ccc(N4CCO[C@@H](C)C4)cn3n2)c2cc(NC(=O)[C@H]3C[C@H]3C(F)F)ncc12 (single isomer, unassigned) [Example 574] | ≤ 100 | ≤ 500 |  | 
14 | [2H]C([2H])([2H])Nc1ncc(-c2nc3ccc(N4CCO[C@H](C)C4)cn3n2)c2cc(NC(=O)C3CC3)ncc12 [Example 512, (R)-N-(8-((methyl-d3)amino)-5-(6-(2-methylmorpholino)-[1,2,4]triazolo[1,5-a]pyridin-2-yl)-2,7-naphthyridin-3-yl)cyclopropanecarboxamide] | ≤ 100 | ≤ 500 |  | 
15 | C=C(c1ccccc1OC)c1cnc(NC)c2cnc(NC(=O)C3CC3)cc12 [Example 175] |  |  |  | Kd (TYK2 JH2; [5]): 100 to 1000 nM; IC50 [1, 6]: > 500 nM
16 | CNc1ncc(-c2nc3cc(N4CCO[C@@H](C)C4)ccc3o2)c2cc(NC(=O)C3CC3)ncc12 [Example 289, (S)—N-(8-(methylamino)-5-(5-(2-methylmorpholino)benzo[d]oxazol-2-yl)-2,7-naphthyridin-3-yl)cyclopropanecarboxamide] | ≤ 100 | ≤ 500 |  | 
17 | CNc1ncc(-c2nc3cc([C@]4(C)CCCO4)ccc3o2)c2cc(NC(=O)C3CC3)ncc12 [Example 948, (S)—N-(8-(methylamino)-5-(5-(2-methyltetrahydrofuran-2-yl)benzo[d]oxazol-2-yl)-2,7-naphthyridin-3-yl)cyclopropanecarboxamide] |  | ≤ 500 | ≤ 100 | 
18 | CNc1ncc(-c2cc(C)no2)c2cc(NC(=O)C3CC3)ncc12 [Example 10, N-(8-(methylamino)-5-(3-methylisoxazol-5-yl)-2,7-naphthyridin-3-yl)cyclopropanecarboxamide] |  |  |  | Kd (TYK2 JH2; [5]): ≤ 100 nM; IC50 [1, 6]: > 500 nM
19 | CNc1ncc(-c2nc3ccc(OCC4CC4)cn3n2)c2cc(NC(=O)C3CC3)ncc12 [Example 495, N-(5-(6-(cyclopropylmethoxy)-[1,2,4]triazolo[1,5-a]pyridin-2-yl)-8-(methylamino)-2,7-naphthyridin-3-yl)cyclopropanecarboxamide] | ≤ 100 | ≤ 500 |  | 
20 | CNc1ncc(-c2nc3cc(N4CC5CCC(C4)O5)ccc3o2)c2cc(NC(=O)C3CC3)ncc12 [Example 305] | ≤ 100 | ≤ 500 |  | 
21 | CNc1ncc(-c2cccc(OC)c2)c2cc(NC(=O)C3CC3)ncc12 [Example 12, N-(5-(3-methoxyphenyl)-8-(methylamino)-2,7-naphthyridin-3-yl)cyclopropanecarboxamide] |  |  |  | Kd (TYK2 JH2; [5]): ≤ 100 nM; IC50 [1, 6]: > 500 nM

More lines, main results first:

Row | Kd (TYK2 JH2; [2]) [nM] | IC50 [1, 3] [nM] | Kd (TYK2 JH2; [4]) [nM] | SMILES | further results
22 | ≤ 100 | ≤ 500 |  | CNc1ncc(-c2nc3c(OC)c(OC)ccc3o2)c2cc(NC(=O)C3CC3)ncc12 [Example 224, N-(5-(4,5-dimethoxybenzo[d]oxazol-2-yl)-8-(methylamino)-2,7-naphthyridin-3-yl)cyclopropanecarboxamide] | 
23 |  | ≤ 500 | ≤ 100 | CNc1ncc(C#Cc2ccc3nnn(CCC#N)c3c2)c2cc(NC(=O)C3CC3)ncc12 [Example 686, N-(5-((1-(2-cyanoethyl)-1H-benzo[d][1,2,3]triazol-6-yl)ethynyl)-8-(methylamino)-2,7-naphthyridin-3-yl)cyclopropanecarboxamide] | 
24 |  | ≤ 500 | ≤ 100 | CNc1ncc(C#Cc2ccc3c(c2)OCC(C)O3)c2cc(NC(=O)C3CC3)ncc12 (stereo not drawn) [Example 977, N-[8-(methylamino)-5-[2-(2-methyl-2,3-dihydro-1,4-benzodioxin-6-yl)ethynyl]-2,7-naphthyridin-3-yl]cyclopropanecarboxamide] | 
25 |  | ≤ 500 | ≤ 100 | CNc1ncc(C#Cc2ccnc(C(F)F)c2)c2cc(NC(=O)C3CC3)ncc12 [Example 621, N-(5-((2-(difluoromethyl)pyridin-4-yl)ethynyl)-8-(methylamino)-2,7-naphthyridin-3-yl)cyclopropanecarboxamide] | 
26 | ≤ 100 | ≤ 500 |  | CNc1ncc(-c2nc3c(NC(C)=O)cccc3o2)c2cc(NC(=O)C3CC3)ncc12 [Example 444, N-(5-(4-acetamidobenzo[d]oxazol-2-yl)-8-(methylamino)-2,7-naphthyridin-3-yl)cyclopropanecarboxamide] | 
27 |  | > 500 | ≤ 100 | CNc1ncc(-c2nc(Cc3ncn(C)n3)co2)c2cc(NC(=O)C3CC3)ncc12 [Example 827, N-(5-(4-((1-methyl-1H-1,2,4-triazol-3-yl)methyl)oxazol-2-yl)-8-(methylamino)-2,7-naphthyridin-3-yl)cyclopropanecarboxamide] | 
28 | ≤ 100 | ≤ 500 |  | CNc1ncc(-c2nc3ccccn3n2)c2cc(Nc3ccccn3)ncc12 [Example 557, 4-([1,2,4]triazolo[1,5-a]pyridin-2-yl)-N^1-methyl-N^6-(pyridin-2-yl)-2,7-naphthyridine-1,6-diamine] | 
29 | ≤ 100 | ≤ 500 |  | CNc1ncc(-c2nc3c(CC#N)cccc3o2)c2cc(NC(=O)C3CC3)ncc12 [Example 273, N-(5-(4-(cyanomethyl)benzo[d]oxazol-2-yl)-8-(methylamino)-2,7-naphthyridin-3-yl)cyclopropanecarboxamide] | 
30 |  | ≤ 500 | ≤ 100 | CNc1ncc(/C=C/c2ccc3c(c2)OCC(COC)O3)c2cc(NC(=O)C3CC3)ncc12 (racemic) [Example 789, (E)-N-(5-(2-(2-(methoxymethyl)-2,3-dihydrobenzo[b][1,4]dioxin-6-yl)vinyl)-8-(methylamino)-2,7-naphthyridin-3-yl)cyclopropanecarboxamide] | 

Reference: US20240025906A1 (NEURON23, INC., priority 2022, published 2024)
